Measured values published in patent US20230119360A1, “PHARMACEUTICAL COMBINATION OF A THERAPEUTIC OLIGONUCLEOTIDE TARGETING HBV AND A TLR7 AGONIST FOR TREATMENT OF HBV” (priority 2019, published 2023).

Tests used:
HBV [1] = assay: AAV/HBV mouse model: HBsAg levels in serum (CLIA); assay type: in vivo, C57BL/6 mice; parameters: HBsAg levels in serum, Average ± SD: unit not given here; details: for HBsAg levels in serum, Average ± SD: AAV/HBV mice, anti-HBV ASO 7.5 mg/kg weekly, TLR7 100 mg/kg weekly (QW)
From the text: (§1) The AAV-HBV mouse model is generated by injecting C57BL/6 mice with recombinant adeno-associated virus harboring a replicable HBV genome (AAV-HBV). The rAAV8-1.3 HBV ayw virus stock was purchased from Beijing FivePlus Molecular Medicine Institute (Beijing, China).
The animals (male, aged 4-5 weeks upon arrival) were purchased from SLAC Laboratory Animal Co. Ltd (Shanghai, China), acclimatized in the animal facility for 5-7 days, and then injected with 1×10^11 vector genome of AAV-HBV (diluted in 200 μL of PBS) through the tail vein. Persistence expression of HBV genome can be established after three weeks, with high levels of HBV viral markers including HBV DNA, HBsAg, and HBeAg in mouse serum. With stable HBV viremia and competent immune system of the C57BL/6 mice, the AAV-HBV mouse model was used to evaluate the in vivo anti-HBV efficacy of the compounds. The in-life part of the AAV-HBV study was conducted through contracted service at Covance Pharmaceutical Research and Development (Shanghai) Co. Ltd. (Covance Shanghai) and the post-life analysis using the serum was performed internally at Roche Innovation Center Shanghai (RICS).
Seven days before compound treatment, blood samples were collected for serum preparation (˜15 μL), and based on HBV DNA, HBsAg levels in serum and body weight, the AAV-HBV infected animals were stratified into the different treatment groups.
Saline (Group 01) and anti-HBV ASO of CMP ID NO: 15_1 at 1.5 or 7.5 mg/kg were dosed sub subcutaneously once a week during Day 0-49 on Days 0, 7, 14, 21, 28, 35, 42 and 49. TLR7 agonist of CMP ID NO: VI 100 mg/kg was administered by oral gavage once every other day during Day 0-55 (QOD) or once weekly during Day 0-49 on Days 0, 7, 14, 21, 28, 35, 42 and 49 (QW). The animals were weekly bled via retro-orbital sinus for sample collection throughout the study. • Oligonucleotide Synthesis
Serum HBsAg levels were determined in the serum of infected AAV-HBV mouse using the HBsAg chemoluminescence immunoassay (CLIA) (Autobio diagnostics Co. Ltd., Zhengzhou, China, Cat. no.CL0310-2), according to the manufacturer's protocol. Briefly, 50μl of serum was transferred to the antibody coated microtiter plate and 50 μl of enzyme conjugate reagent was added. The plate was incubated for 60 min on a shaker at room temperature before all wells were washed six times with washing buffer using an automatic washer. 25 μl of substrate A and then 25 μl of substrate B was added to each well. The plate was incubated for 10 min at RT before luminescence was measured using an Envision luminescence reader (Perkin Elmer). HBsAg is given in the unit IU/ml; where 1 ng HBsAg=1.14 IU.
(§2) To evaluate the combination of the anti-HBV ASO and the TLR7 agonist in an in vivo system, a mouse model of chronic HBV infection was used. In the AAV/HBV mouse model described in the Materials and Method a persistent HBV infection is established resulting in expression of viral markers (HBsAg, HBeAg, HBV DNA) detectable in plasma. The effect on these viral markers upon treatment with the anti-HBV ASO of CMP ID NO: 15_1 (table 2, and FIG. 4) dosed at 1.5 mg/kg or 7.5 mg/kg and the TLR7 agonist of CMP ID NO: VI (table 3) dosed with […] every other day (QOD) or once weekly (QW) in monotherapy or in combination has been evaluated.

HBV [2] = assay: AAV-HBV mouse model, single dose siRNA vs ASO: serum HBsAg; assay type: in vivo, C57BL/6 mice; details: 6.6 mg/kg single subcutaneous injection Day 0
Description: The purpose of this study was to evaluate the in vivo pharmacology and efficacy of certain compounds in AAV-HBV mouse model.
Recombinant adeno-associated virus (AAV) carrying the Hepatitis B Virus (HBV) genome rAAV8-1.3HBV ayw (Lot No: 2019032703) was purchased from Beijing FivePlus Molecular Medicine Institute, and stored at −70° C. before use.
One hundred and fifteen (115) male C57BL/6 mice were obtained. On Pre-dose Day 0, all the animals were subjected to injection through tail vein with 1×10^11 vector genome of AAV-HBV for model induction. Based on baseline serum viral markers and body weight on Pre-dose Day 24, 80 qualified HBV-infected mice were selected.
The 80 selected mice were randomized into 4 groups for compound treatment. Sterile water, DCR-AUD1, DCR-5219 (9 mg/kg), and CMP ID NO: 15_1 (6.6 mg/kg) were subcutaneously injected once at 5 mL/kg on Day 0. The dosing volume was […].
Whole blood was collected to prepare serum (15 μL per mouse) twice weekly during Day 0˜21. On Day 21, the mice were euthanized. […]
Baseline serum levels of HBsAg were determined by ARCHITECT i2000 (Abbott Laboratories, Lake Bluff, IL, USA) and supporting reagents. Baseline serum HBV DNA level was measured by using ABI7500 (Applied Biosystems, Foster City, Calif., USA) and detection kit (Sansure Biotech Inc., Changsha, Hunan, China).

HBV [3] = assay: AAV/HBV mouse model: HBV-DNA levels in serum (qPCR); assay type: in vivo, C57BL/6 mice
From the text: as §1
The animals (male, aged 4-5 weeks upon arrival) were purchased from SLAC Laboratory Animal Co. Ltd (Shanghai, China), acclimatized in the animal facility for 5-7 days, and then injected with 1×10^11 vector genome of AAV-HBV (diluted in 200 μL of PBS) through the tail vein. Persistence expression of HBV genome can be established after three weeks, with high levels of HBV viral markers including HBV DNA, HBsAg, and HBeAg in mouse serum. […]
Quantification of extracted HBV DNA was performed using a Taqman qPCR machine (ViiA7, life technologies). […] DNA copy numbers were calculated from Ct values based on a HBV plasmid DNA standard curve by the ViiA7 software.
as §2, with “In the AAV/HBV mouse model described in the Materials and Method a persistent HBV infection is established resulting in expression of viral markers (HBsAg, HBeAg, HBV DNA) detectable in plasma.” left out

HBV [4] = assay: Entecavir combination study in HBV-expressing mouse (HDI model); assay type: in vivo; details: HDI mice; monotherapy
Description: The RNAi oligonucleotides targeting the S antigen impact both the viral polymerase and HBsAg protein. In this study, the combinational effects of HBV(s)-219P2 as a monotherapy and combinational treatment with entecavir was explored in an HBV-expressing mouse (HDI model) for antiviral activity.
Mice were administered daily oral dosing of 500 ng/kg Entecavir (ETV) for 14 days. A single subcutaneous administration of HBV(s)-219P2 took place. Circulating viral load (HBV DNA) was measured by qPCR (FIG. 25A), plasma HBsAg level was measured by ELISA (FIG. 25B), and liver HBV mRNA and pgRNA levels were measured by qPCR.

HBsAg = tested on: HBsAg
Description: Preclinical potency was further evaluated in mice following a QW×3 dosing regimen in which HBV-254 was subcutaneously administered at 3 mg/kg (FIG. 23). The administration points are indicated by arrows in the figure. HBsAg levels were monitored in both oligonucleotide treated and untreated control mice for a period spanning 147 days.
Each oligonucleotide, including HBV-254, was evaluated at three concentrations (1, 10, and 100 pM) in HeLa cells using the fluorescence-based reporter assay.

“5′-GN2-C6ocoaoGs^mCsGstsasasasgsasgsasGsG-3′ [CMP ID NO: 15_1]” was tested, and the “HBsAg levels in serum, Average ± SD” value (HBV [1]; D 0) was 4.30 ± 0.30, the “HBsAg levels in serum, Average ± SD” value (HBV [1]; D 7) was 1.71 ± 0.24 and the “HBsAg levels in serum, Average ± SD” value (HBV [1]; D 14) was 1.83 ± 0.21. The “HBsAg levels in serum, Average ± SD” value (HBV [1]; D 21) was 1.43 ± 0.17, the “HBsAg levels in serum, Average ± SD” value (HBV [1]; D 28) was 1.30 ± 0.19 and the “HBsAg levels in serum, Average ± SD” value (HBV [1]; D 35) was 1.36 ± 0.26. For the same molecule, the “HBsAg levels in serum, Average ± SD” value (HBV [1]; D 42) was 1.30 ± 0.16, the “HBsAg levels in serum, Average ± SD” value (HBV [1]; D 49) was 1.56 ± 0.16 and the “HBsAg levels in serum, Average ± SD” value (HBV [1]; D 56) was 1.32 ± 0.24. The “HBsAg levels in serum, Average ± SD” value (HBV [1]; D 63) was 1.33 ± 0.47, the “HBsAg levels in serum, Average ± SD” value (HBV [1]; D 70) was 2.18 ± 0.91 and the “HBsAg levels in serum, Average ± SD” value (HBV [1]; D 77) was 2.70 ± 0.85. For the same molecule, the “HBsAg levels in serum, Average ± SD” value (HBV [1]; D 84) was 3.17 ± 0.60, the “HBsAg levels in serum, Average ± SD” value (HBV [1]; D 91) was 3.82 ± 0.38 and the “HBsAg levels in serum, Average ± SD” value (HBV [1]; D 98) was 3.64 ± 0.81. For the same molecule, the “HBsAg levels in serum, Average ± SD” value (HBV [1]; D 105) was 3.61 ± 0.97, the “HBsAg levels in serum, Average ± SD” value (HBV [1]; D 111) was 3.40 ± 1.49 and the “suppression of HBsAg below the detection limit” value (HBV [1]; anti-HBV ASO 1.5 mg/kg monotherapy) was “not capable of suppressing HBsAg to a level below the detection limit”. The “time until which decrease in HBsAg was maintained before rebound” value (HBV [2]) was “about 10 days”, the “HBsAg level over time” value (HBV [2]; 21 days) was “rapid decrease in HBsAg level” and the “reduction in HBV-DNA” value (HBV [3]; monotherapy at both 1.5 mg/kg and 7.5 mg/kg) was “rapid reduction in HBV-DNA to below the lower level of quantification”.
`CC[C@H](OC(C)=O)[C@@H]1C[C@@H](O)[C@H](n2c(=O)sc3cnc(N)nc32)O1` [CMP ID NO: VI, [(1S)-1-[(2S,4R,5R)-5-(5-amino-2-oxo-thiazolo[4,5-d]pyrimidin-3-yl)-4-hydroxy-tetrahydrofuran-2-yl]propyl] acetate] was tested, and the “day of lowest HBsAg” value (HBV [1]; TLR7 agonist alone (FIG. 10A)) was 42 days and the “HBV DNA rebound, distance from control group during follow-up” value (HBV [3]; TLR7 agonist monotherapy, QOD or QW) was at most 1 log.
With `C=C1[C@H](CO)[C@@H](O)C[C@@H]1n1cnc2c(=O)[nH]c(N)nc21` [entecavir, Entecavir] the “circulating HBsAg” value (HBV [4]) was “No significant decrease” and the “hepatic viral RNAs” value (HBV [4]) was “No significant decrease”.
With “HBV-254: HBsAg-targeting duplex oligonucleotide, sense SEQ ID NO: 55, antisense SEQ ID NO: 56 (sense GUGGUGGACUUCUCUCAAUAGCAGCCGAAAGGCUGC; antisense UAUUGAGAGAAGUCCACCACGG; chemistry not given here)” the HBsAg levels (HBsAg; HDI-mice, single subcutaneous dose, increasing dosage) was “systematically reduced HBsAg levels in mice with increasing dosage” and the “HBsAg levels relative to control” value (HBsAg; mice, QW×3, 3 mg/kg subcutaneous, monitored 147 days) was “Diminished HBsAg levels persisted in treated mice throughout the entirety of the study”.
